Results published in the NIST ThermoML archive (doi:10.1016/j.jct.2015.12.027).

Legend:
[1] = xn = mol fraction of the nth substance listed; details: 81.5 kPa, Liquid, Vibrating tube method
[2] = refractive index (Na D-line) (dimensionless); xn = mol fraction of the nth substance listed; details: 81.5 kPa, Liquid, Standard Abbe refractometry

O=[N+]([O-])c1ccccc1 [nitrobenzene] + ClCCCl
Details	mass density, 293.15 K [kg/m3]	mass density, 303.15 K [kg/m3]	mass density, 313.15 K [kg/m3]	mass density, 323.15 K [kg/m3]	mass density, 333.15 K [kg/m3]	refractive index, 293.15 K	refractive index, 303.15 K	refractive index, 313.15 K	refractive index, 323.15 K	refractive index, 333.15 K
[1], x2 = 0	1203.05	1193.15	1183.21	1173.27	1163.32	–	–	–	–	–
[1], x2 = 0.1008	1206.99	1196.83	1186.61	1176.36	1166.07	–	–	–	–	–
[1], x2 = 0.1993	1211.04	1200.58	1190.03	1179.45	1168.82	–	–	–	–	–
[1], x2 = 0.3	1215.35	1204.56	1193.66	1182.68	1171.66	–	–	–	–	–
[1], x2 = 0.3997	1219.84	1208.67	1197.36	1185.98	1174.52	–	–	–	–	–
[1], x2 = 0.4991	1224.55	1212.96	1201.23	1189.39	1177.48	–	–	–	–	–
[1], x2 = 0.6004	1229.62	1217.53	1205.32	1193	1180.62	–	–	–	–	–
[1], x2 = 0.7006	1234.94	1222.31	1209.57	1196.72	1183.82	–	–	–	–	–
[1], x2 = 0.801	1240.51	1227.39	1214.06	1200.58	1187.03	–	–	–	–	–
[1], x2 = 0.8997	1246.65	1232.66	1218.68	1204.5	1190.22	–	–	–	–	–
[2], x2 = 0	–	–	–	–	–	1.55241	1.54763	1.54288	1.53795	1.53289
[2], x2 = 0.1008	–	–	–	–	–	1.54317	1.53879	1.53437	1.52975	1.52496
[2], x2 = 0.1993	–	–	–	–	–	1.5343	1.53004	1.52579	1.5214	1.5169
[2], x2 = 0.3	–	–	–	–	–	1.5252	1.52093	1.51672	1.51243	1.5081
[2], x2 = 0.3997	–	–	–	–	–	1.51592	1.51157	1.5073	1.50299	1.49867
[2], x2 = 0.4991	–	–	–	–	–	1.5061	1.50165	1.49727	1.49286	1.48847
[2], x2 = 0.6004	–	–	–	–	–	1.49525	1.49071	1.48623	1.48171	1.4772
[2], x2 = 0.7006	–	–	–	–	–	1.48353	1.47893	1.47436	1.46977	1.46518
[2], x2 = 0.801	–	–	–	–	–	1.47088	1.46619	1.46154	1.45687	1.45224
[2], x2 = 0.8997	–	–	–	–	–	1.45787	1.453	1.44817	1.44337	1.43861
